Laboratory results from patent US11542475B2, “3D microphysiologic system” (Northwestern University, priority 2014, dated 2023).
Like-named read-outs stand apart in the source and are kept apart here.

Columns and labels:
p53 stabilization in FTE = assay: 3D human fimbriae culture: p53 immunohistochemistry; assay type: cell-based; conditions: 2 and 7 days treatment, n=8
Experimental: (§1) Tissues were micro-dissected in alpha-MEM (Gibco, Carlsbad, Calif.) with 1% penicillin-streptomycin (Invitrogen, Carlsbad, Calif.). Individual fimbriae were separated into ˜50 mm^3 pieces. A portion of the tissue was fixed in 2% paraformaldehyde for use as an uncultured control. For optimization studies, fimbriae were cultured without matrix, encapsulated in 0.5% alginate, or encapsulated in 0.5% alginate with 1 mg/ml collagen and 0.1% fibronectin, as previously described for murine cultures (King et al. J Vis Exp. 2011.; herein incorporated by reference in its entirety). For subsequent treatments, 0.5% alginate encapsulated fimbriae were randomly assigned to treatment groups, with at least five fimbriae per condition, per patient, in a 24-well plate containing alpha-MEM and 1% penicillin-streptomycin. […] Prior to fixation, fimbriae were labeled with 10 μM bromodeoxyurine (BrdU, Sigma-Aldrich) for 24 hours to denote proliferating cells. Fimbriae cultures were fixed (2% paraformaldehyde) followed by dehydration in ethanol and xylene, and embedment in paraffin.
Sections (5 μm) were cut and stained via hematoxylin and eosin for morphological analysis or immunohistochemistry was performed to localize proteins of interest as previously described (King et al. Endocr Relat Cancer. 2011. 18:627-42.; herein incorporated by reference in its entirety). Slides were rehydrated through an ethanol gradient, prior to 0.1M sodium citrate retrieval and peroxidase block. […]
Immunohistochemistry images were taken via a Nikon E600 microscope, DXM1200 digital camera and NIS Elements software (Nikon Instruments, Melville, N.Y.). […] BrdU sections were imaged and epithelial cells (CK8 positive) were quantified for proliferation via ImageJ software (NIH, Bethesda, Md.). At least three fimbriae with 200 or more FTE were quantified for each treatment. Analysis of p53 staining was similar, with at least three fimbriae per treatment, per patient analyzed. Samples with p53 expression were quantified utilizing adjacent sections stained for the secretory cell marker PAX8 in a qualitative manner as described.

[1] = tested on: human fallopian fimbriae FTE; assay: 3D human fimbriae culture: FTE proliferation by BrdU labeling; assay type: cell-based; conditions: insulin 5 μg/ml (ITS), H2O2 1 mM, E2 10 nM, n=6
Experimental: as §1
Sections (5 μm) were cut and stained via hematoxylin and eosin for morphological analysis or immunohistochemistry was performed to localize proteins of interest as previously described (King et al. Endocr Relat Cancer. 2011. 18:627-42.; herein incorporated by reference in its entirety). Slides were rehydrated through an ethanol gradient, prior to 0.1M sodium citrate retrieval and peroxidase block. Tissues probed for BrdU were exposed to 4M HCl and 0.1M NaB4O7(Fisher Scientific) to denature DNA. All immunohistochemical reagents were obtained from Vector Laboratories, Inc (Burlingame, Calif.) unless otherwise stated. Tissues were blocked in 3% bovine serum albumin (Gemini, West Sacramento, Calif.)-TBS/10% serum and incubated with a primary antibody 1:50 acetylated tubulin (Cell Signaling, Cambridge, Mass.); 1:200 BrdU (AbCam, Cambridge, Mass.); 1:100 cytokeratin 8 (CK8, Developmental Studies Hybridoma Bank, Iowa City, Iowa); 1:50 p53 (Santa Cruz, Santa Cruz, Calif.); 1:100 PAX8 (Proteintech, Chicago, Ill.); 1:100 pH2AX (Cell Signaling); or 1:75 PR (Santa Cruz)) overnight at 4°. Tissues were washed in TBS-0.1% Tween and incubated with a secondary antibody (1:200), before being probed with ABC peroxidase standard, followed by detection with 3,3′-diaminobenzidine (DAB) and counterstained with hematoxylin.
Immunohistochemistry images were taken via a Nikon E600 microscope, DXM1200 digital camera and NIS Elements software (Nikon Instruments, Melville, N.Y.). For proliferation analysis, concurrent sections were stained for CK8 and BrdU. BrdU sections were imaged and epithelial cells (CK8 positive) were quantified for proliferation via ImageJ software (NIH, Bethesda, Md.). At least three fimbriae with 200 or more FTE were quantified for each treatment. […] Samples with p53 expression were quantified utilizing adjacent sections stained for the secretory cell marker PAX8 in a qualitative manner as described.

Stage 5b mouse follicles = tested on: Stage 5b mouse follicles
Experimental: Cisplatin (CDDP) and cyclophosphamide (CTX) were obtained from Sigma-Aldrich (St. Louis, Mo.) and used at final concentrations of: 0.2, 1, and 5 μM. Nalbuphine and Raclopride were obtained from the NIH Clinical Collection (South San Francisco, Calif.) and used at final concentrations of: 0.2, 1, and 5 μM. Corexit EC 9500A was obtained via a Material Transfer Agreement from Nalco (Sugar Land, Tex.). CE was used at final concentrations of: 5 ppm, 10 ppm, 25 ppm, 50 ppm, 75 ppm, 100 ppm, 125 ppm, 150 ppm, 200 ppm, 250 ppm, 300 ppm, 350 ppm and 400 ppm, which correspond to 4.75 mg/L, 9.5 mg/L, 23.75 mg/L, 47.5 mg/L, 71.25 mg/L, 95 mg/L, 118.75 mg/L, 142.5 mg/L, […], 237.5 mg/L, 285 mg/L, 332.5 mg/L and 380 mg/L.
All experiments were performed using CD-1 female mice (Harlan Laboratories, Indianapolis, Ind.) that were housed in a controlled barrier facility at Northwestern University's Center of Comparative Medicine under constant temperature, humidity and light (12 h light/12 h dark). Food and water were provided ad libitum. All animal experiments were approved by the Institutional Animal Care and Use Committee and were in accordance with National Institutes of Health Guidelines. For follicle isolation, ovaries were dissected from 14-15-day-old mice and cut into 4 pieces. The tissue was incubated for 1 hour in L15 media (Invitrogen, Carlsbad, Calif., USA) containing 2% Liberase™ (Roche, Indianapolis, Ind.) and 1% DNase I (Worthington, Lakewood, N.J.). The enzymatic digestion was quenched by rinsing follicles in αMEM Glutamax (Invitrogen) containing 1% Fetal Bovine Serum (FBS, Invitrogen, Carlsbad, Calif.) and 0.5% Pen-Strep (Mediatech, Herndon, Va.). Type 5b multilayer secondary follicles (140-175 μm in diameter) were manually collected and cultured individually in wells of a 96-well plate (Pedersen and Peters, 1968; herein incorporated by reference in its entirety).
Follicles were cultured at 37° C. in a humidified atmosphere of 5% CO2 in air for up to 6 days. All chemical exposures were initiated on day 2 of culture. Half of the culture media was replaced with fresh GM every other day and spent media was stored at −20° C. for use in steroid hormone assays. Follicles were imaged at each media change using a Leica DM IRB inverted microscope equipped with 4× and 20× objectives (Leica Microsystems, Heidelberg, Germany) to assess survival, morphology and growth. Live follicles were defined as those that contained an oocyte surrounded completely by somatic cells. […] The percent of surviving follicles was calculated as the number of live follicles out of the total number of follicles plated. Antral cavity formation was assessed morphologically and characterized by the differentiation of outer layers of mural granulosa cells and inner layers of cumulus granulosa cells surrounding the oocyte as well as the presence of a fluid-filled structure.

[2] = tested on: OVGP1 expression in human fallopian epithelium; assay: OVGP1 immunoblot of cultured fallopian epithelium lysate; assay type: cell-based
Experimental: (§2) Human fallopian tissue was obtained from routine hysterectomies from women in their reproductive years (ages range from 26 to 50 years old) and who had not undergone exogenous hormonal treatment for at least three months prior to surgery. Informed consent was obtained from each patient and approval granted by the ethics committee of the Northwestern University. Human fallopian tissue was kept in the DMEM/F12 medium with 10% FBS on ice and processed within 24 hours. The tissue was washed with warm PBS solution two times before being transferred into warm dissection medium (Liebowitz 15 with 0.5% P/S and 10% FBS). After cleaning connective tissue from outside of the fallopian tissue, the fallopian tube was cut open and the inner epithelia layer was mechanically dissected using forceps. […] Tissue was cultured on 0.4 μm pore Millicell inserts (PICM03050, EMD Millipore Co, Billerica, Mass., USA) twelve-well plates with culture medium in a 37° C. and 5% CO2 incubator. Estrogen (E2) and progesterone (P4) used in tissue culture experiments were purchased from Sigma (St. Louis, Mo.).
(§3) Cultured human fallopian epithelia layers were homogenized with a minipestle in ice-cold lysis buffer (20 mM Tris-HCl, pH 8.0, 137 mM NaCl, 10% glycerol, 1% NP-40, 2 mM EDTA). Lysate normalized for protein content was loaded into NuPAGE 4-12% gradient Bis-Tris precast SDS-PAGE gels and transferred to a nitrocellulose membrane (Life Technologies, Carlsbad, Calif., USA). Blots were probed by polyclonal anti-OVGP1 antibody (LsBio, Cambridge, Mass.) overnight in 4° C. followed by anti-rabbit secondary antibody conjugated to horseradish peroxidase (Zymed, San Francisco, Calif.). Proteins were detected by ECL primer (GE HealthCare Life Sciences, Pittsburgh, Pa.) and exposed to X-ray film (Kodak, Rochester, N.Y.). The same blot was stripped using stripping buffer (Thermo Scientific, Hanover Park, Ill.) and re-probed with monoclonal anti-α-tubulin (Sigma, St. Louis, Mo.) followed by an anti-mouse secondary antibody conjugated to horseradish peroxidase. NIH ImageJ Imaging Software was used to quantify the density of western blot bands. Conditioned medium from fallopian epithelia cultures was collected and probed via western blot analysis using a polyclonal anti-hIGF1 antibody (abcam, Cambridge, Mass.). The blot was detected by the same method described above.

[3] = tested on: human fallopian tube epithelium; assay: Fallopian epithelia cilia beating quantification; assay type: cell-based; conditions: 7 days culture; P4 added to E2
Experimental: Human fallopian tissue was obtained from routine hysterectomies from women in their reproductive years (ages range from 26 to 50 years old) and who had not undergone exogenous hormonal treatment for at least three months prior to surgery. Informed consent was obtained from each patient and approval granted by the ethics committee of the Northwestern University. Human fallopian tissue was kept in the DMEM/F12 medium with 10% FBS on ice and processed within 24 hours. The tissue was washed with warm PBS solution two times before being transferred into warm dissection medium (Liebowitz 15 with 0.5% P/S and 10% FBS). After cleaning connective tissue from outside of the fallopian tissue, the fallopian tube was cut open and the inner epithelia layer was mechanically dissected using forceps. […]
Fallopian epithelia layers were cultured in estradiol (E2) 1 nM, E2 1 nM+progesterone (P4) 10 nM, E2 0.1 nM+P4 50 nM or with solvent only negative control for 7 days. Cilia beating movies were acquired using an Andor Spinning Disk Confocal with 5 ms exposure time and 5 ms readout time. […] The Multiple Kymograph plugin for the NIH ImageJ software was used to quantify cilia beating frequency. In each movie, 8 clusters of cilia were picked for the cilia beating quantification.

[4] = tested on: IGF1 secretion by human fallopian epithelium; assay: hIGF1 immunoblot of fallopian epithelium conditioned medium; assay type: cell-based
Experimental: as §2, §3
Fallopian epithelia layers cultured on […] inserts were pre-cultured in the alpha-MEM with 0.3% BSA, ITS and 1% P/S medium for two days. Cell culture medium was collected for the glucose ELISA assay (abcam, Cambridge, Mass.). Medium was diluted 1:500 and ELISA was performed according to the protocol provided by the kit. […]

endometrial cells = assay: Cell survival Wst-1 assay in endometrial cells cultured in 2D; assay type: cell-based, human; conditions: 2D culture, 72 hours
[5] = 28 days stepwise E2 and P4 treatment, P4 in the presence of E2

Row | Compound | p53 stabilization (p53 stabilization in FTE) | FTE proliferation (percentage of total FTE cells, BrdU) ([1]; 7 days in culture) | follicle survival (Stage 5b mouse follicles; 1 μM, day 4 of culture) | follicle survival (Stage 5b mouse follicles; 1 μM, day 6 of culture) | follicle survival (Stage 5b mouse follicles; 5 μM, day 4 of culture) | follicle survival (Stage 5b mouse follicles; 5 μM, day 6 of culture) | further results
1 | Insulin: insulin 5 μg/ml given via ITS supplement (insulin; transferrin; selenite) | no factor notably induced p53 stabilization | 4.1±0.9% |  |  |  |  | 
2 | [NH2][Pt]([NH2])([Cl])[Cl] [CDDP, Cisplatin] |  |  | 76.31% | 58.38% | 47.83% | 12.56% | concentration at which complete release of the oocyte from the follicle was first observed (Stage 5b mouse follicles): 5000 nM
3 | O=P1(N(CCCl)CCCl)NCCCO1 (centres unmarked) [CTX, cyclophosphamide] |  |  | 57.23% | 32.43% | 36.41% | 11.49% | follicle survival (Stage 5b mouse follicles; 0.2 μM, day 6 of culture (treated on day 2)): 71.8%; follicle morphology (Stage 5b mouse follicles; increasing concentrations (0.2, 1, 5 μM)): disorganized follicles with dark granulosa cells and little evidence of antral cavity formation; concentration at which complete release of the oocyte from the follicle was first observed (Stage 5b mouse follicles; most severe phenotype): 1000 nM
4 | CC(=O)[C@H]1CC[C@H]2[C@@H]3CCC4=CC(=O)CC[C@]4(C)[C@H]3CC[C@]12C [P4, progesterone] |  |  |  |  |  |  | OVGP1 expression in the fallopian lysate ([2]; 7 days culture, P4 added to E2): suppressed; OVGP1 expression [2, 5]: suppressed; cilia beating frequency (CBF) [3]: decreased; IGF1 secretion ([4]; 7 days culture, 1 nM E2, P4 added to E2): attenuated; IGF1 secretion [4, 5]: suppressed
5 | C[C@]12CC[C@H]3[C@@H](CCC4=CC(=O)CC[C@@]43C)[C@@H]1CC[C@@H]2O [testosterone] |  |  |  |  |  |  | toxicity on endometrial cells (cell survival) (endometrial cells): no toxicity
6 | OO [H2O2] | no factor notably induced p53 stabilization | 2.2±0.5% |  |  |  |  | FTE proliferation (percentage of total FTE cells, BrdU) ([1]; 2 days in culture): 4.0±1.1%
